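Protocol summary: plate cells (96-well), add compound at 5 concentrations, incubate 48 h, interpolate endpoints linearly. The concentration for full growth arrest is given as TGI.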
What was measured:
Assay in all cases: NCI-60 cell line screen, 48 h
[1] = test system: 786-0 renal
[2] = test system: A498 renal
[3] = test system: A549 NSCLC
[4] = test system: ACHN renal
[5] = test system: BT-549 breast
[6] = test system: CAKI-1 renal
[7] = test system: DU-145 prostate
[8] = test system: EKVX NSCLC
[9] = test system: HCC-2998 colon
[10] = test system: HCT-116 colon
[11] = test system: HCT-15 colon
[12] = test system: HL-60(TB) leukemia
[13] = test system: HOP-62 NSCLC
[14] = test system: HOP-92 NSCLC
[15] = test system: HS 578T breast
[16] = test system: HT29 colon
[17] = test system: IGROV1 ovarian
[18] = test system: K-562 leukemia
[19] = test system: KM12 colon
[20] = test system: LOX IMVI melanoma
[21] = test system: M14 melanoma
[22] = test system: MALME-3M melanoma
[23] = test system: MCF7 breast
[24] = test system: MDA-MB-231 breast
[25] = test system: MDA-MB-435
[26] = test system: MDA-N
[27] = test system: MOLT-4 leukemia
[28] = test system: NCI-H23 lung
[29] = test system: NCI-H460 lung
[30] = test system: NCI-H522 lung
[31] = test system: NCI/ADR-RES ovarian
[32] = test system: OVCAR-3 ovarian
[33] = test system: OVCAR-4 ovarian
[34] = test system: OVCAR-8 ovarian
[35] = test system: RXF 393 renal
[36] = test system: SF-268 CNS
[37] = test system: SF-295 CNS
[38] = test system: SF-539 CNS
[39] = test system: SK-MEL-28 melanoma
[40] = test system: SK-MEL-5 melanoma
[41] = test system: SK-OV-3 ovarian
[42] = test system: SN12C renal
[43] = test system: SNB-19 CNS
[44] = test system: SW-620 colon
[45] = test system: T-47D breast
[46] = test system: TK-10 renal
[47] = test system: U251 CNS
[48] = test system: UACC-257 melanoma
[49] = test system: UACC-62 melanoma
[50] = test system: CCRF-CEM leukemia
[51] = test system: COLO 205 colon
[52] = test system: NCI-H226 lung
[53] = test system: OVCAR-5 ovarian
[54] = test system: PC-3 prostate
[55] = test system: RPMI-8226 leukemia
[56] = test system: SK-MEL-2 melanoma
[57] = test system: SNB-75 CNS
[58] = test system: SR leukemia
[59] = test system: UO-31 renal

## COc1cc([C@@H]2c3cc4c(cc3[C@@H](N=Cc3ccc(C(=O)O[C@@H](C(=O)O[C@H]5C[C@@]6(O)[C@@H](OC(=O)c7ccccc7)[C@@H]7[C@]8(OC(C)=O)CO[C@@H]8C[C@H](O)[C@@]7(C)C(=O)[C@H](OC(C)=O)C(=C5C)C6(C)C)[C@@H](NC(=O)c5ccccc5)c5ccccc5)cc3)[C@H]3COC(=O)[C@H]23)OCO4)cc(OC)c1O
[1]
  TGI: > 50 µM
[2]
  TGI: 26.2 µM
[3]
  TGI: > 50 µM
[4]
  TGI: > 50 µM
[5]
  TGI: > 11.7 µM
[6]
  TGI: > 50 µM
[7]
  TGI: > 42.5 µM
[8]
  TGI: > 47 µM
[9]
  TGI: 2.92 µM
[10]
  TGI: > 50 µM
[11]
  TGI: > 50 µM
[12]
  TGI: 0.182 µM
[13]
  TGI: > 50 µM
[14]
  TGI: > 50 µM
[15]
  TGI: > 50 µM
[16]
  TGI: 1.92 µM
[17]
  TGI: > 50 µM
[18]
  TGI: > 50 µM
[19]
  TGI: > 50 µM
[20]
  TGI: > 50 µM
[21]
  TGI: > 50 µM
[22]
  TGI: > 50 µM
[23]
  TGI: 7.38 µM
[24]
  TGI: > 13.9 µM
[25]
  TGI: 0.00867 µM
[26]
  TGI: 0.0663 µM
[27]
  TGI: > 50 µM
[28]
  TGI: > 18.5 µM
[29]
  TGI: > 50 µM
[30]
  TGI: > 50 µM
[31]
  TGI: > 50 µM
[32]
  TGI: 0.164 µM
[33]
  TGI: > 50 µM
[34]
  TGI: > 50 µM
[35]
  TGI: > 31.1 µM
[36]
  TGI: > 50 µM
[37]
  TGI: 24.8 µM
[38]
  TGI: 1.47 µM
[39]
  TGI: > 50 µM
[40]
  TGI: > 50 µM
[41]
  TGI: > 22.7 µM
[42]
  TGI: > 50 µM
[43]
  TGI: > 50 µM
[44]
  TGI: > 50 µM
[45]
  TGI: > 50 µM
[46]
  TGI: > 50 µM
[47]
  TGI: > 16.9 µM
[48]
  TGI: > 50 µM
[49]
  TGI: > 50 µM

## O=C(Cn1c(=O)oc2ccc(C(=O)c3ccccc3Cl)cc21)c1ccc([N+](=O)[O-])cc1
[1]
  TGI: > 100 µM
[2]
  TGI: > 100 µM
[3]
  TGI: > 100 µM
[4]
  TGI: > 100 µM
[5]
  TGI: 75 µM
[6]
  TGI: > 100 µM
[50]
  TGI: > 100 µM
[51]
  TGI: 39.6 µM
[7]
  TGI: > 100 µM
[8]
  TGI: > 100 µM
[9]
  TGI: 34.6 µM
[10]
  TGI: 35.6 µM
[11]
  TGI: 65.4 µM
[12]
  TGI: > 100 µM
[13]
  TGI: > 100 µM
[14]
  TGI: > 100 µM
[15]
  TGI: > 100 µM
[16]
  TGI: > 100 µM
[17]
  TGI: > 100 µM
[18]
  TGI: 83 µM
[19]
  TGI: 58.1 µM
[20]
  TGI: 30.9 µM
[21]
  TGI: 47.5 µM
[22]
  TGI: 69.5 µM
[23]
  TGI: 89.1 µM
[24]
  TGI: 79.7 µM
[25]
  TGI: 46.6 µM
[26]
  TGI: 39.1 µM
[27]
  TGI: > 100 µM
[52]
  TGI: > 100 µM
[28]
  TGI: > 100 µM
[29]
  TGI: 55.7 µM
[30]
  TGI: 39.9 µM
[31]
  TGI: > 100 µM
[32]
  TGI: 59.4 µM
[33]
  TGI: > 100 µM
[53]
  TGI: > 100 µM
[34]
  TGI: > 100 µM
[54]
  TGI: > 100 µM
[55]
  TGI: 77.2 µM
[36]
  TGI: > 100 µM
[37]
  TGI: 81.7 µM
[38]
  TGI: 65.9 µM
[56]
  TGI: 41.6 µM
[39]
  TGI: > 100 µM
[40]
  TGI: 40.5 µM
[41]
  TGI: 66 µM
[42]
  TGI: 65.5 µM
[43]
  TGI: > 100 µM
[57]
  TGI: > 100 µM
[58]
  TGI: > 100 µM
[44]
  TGI: > 100 µM
[45]
  TGI: 56.5 µM
[46]
  TGI: > 100 µM
[47]
  TGI: > 100 µM
[48]
  TGI: 90.3 µM
[49]
  TGI: 40.7 µM
[59]
  TGI: > 100 µM

## CCOC(=O)Cn1nnc2cc(Nc3nc4ccccc4nc3C(=O)OCC)ccc21
[1]
  TGI: > 100 µM
[2]
  TGI: > 100 µM
[3]
  TGI: > 100 µM
[4]
  TGI: > 100 µM
[5]
  TGI: > 100 µM
[6]
  TGI: > 100 µM
[50]
  TGI: > 100 µM
[51]
  TGI: > 100 µM
[7]
  TGI: > 100 µM
[8]
  TGI: > 100 µM
[9]
  TGI: > 100 µM
[10]
  TGI: > 100 µM
[11]
  TGI: > 100 µM
[12]
  TGI: > 100 µM
[13]
  TGI: 79.6 µM
[14]
  TGI: 50 µM
[15]
  TGI: > 100 µM
[16]
  TGI: > 100 µM
[17]
  TGI: > 100 µM
[18]
  TGI: > 100 µM
[19]
  TGI: > 100 µM
[20]
  TGI: > 100 µM
[21]
  TGI: > 100 µM
[22]
  TGI: > 100 µM
[23]
  TGI: > 100 µM
[25]
  TGI: > 100 µM
[26]
  TGI: > 100 µM
[27]
  TGI: > 100 µM
[52]
  TGI: > 100 µM
[28]
  TGI: > 100 µM
[29]
  TGI: > 100 µM
[30]
  TGI: > 100 µM
[31]
  TGI: > 100 µM
[32]
  TGI: > 100 µM
[33]
  TGI: > 100 µM
[53]
  TGI: > 100 µM
[34]
  TGI: > 100 µM
[54]
  TGI: > 100 µM
[55]
  TGI: > 100 µM
[35]
  TGI: 64.8 µM
[36]
  TGI: > 100 µM
[37]
  TGI: > 100 µM
[38]
  TGI: 58.6 µM
[56]
  TGI: > 100 µM
[39]
  TGI: > 100 µM
[40]
  TGI: > 100 µM
[41]
  TGI: > 100 µM
[42]
  TGI: > 100 µM
[43]
  TGI: > 100 µM
[57]
  TGI: 9.39 µM
[58]
  TGI: > 100 µM
[44]
  TGI: > 100 µM
[45]
  TGI: > 100 µM
[46]
  TGI: 59 µM
[47]
  TGI: > 100 µM
[48]
  TGI: > 100 µM
[49]
  TGI: > 100 µM
[59]
  TGI: 19.4 µM

— PubChem BioAssay (NCI)
